# Measurements as given in patent publication US20190264229A1, “DEVICE, SYSTEM AND METHOD FOR INTRACELLULAR DELIVERY OF SUBSTANCES” (Agency for Science, Technology and Research, priority 2016, published 2019).
# Test system: HEK293T cells
# Assay: Pipette tip filter loading of fluorescein-labeled cargo into HEK293T cells, flow cytometry
# Format: cell-based
# Details: pipetted through the filter vs not passed through the filter, 0.4 million HEK293T, 12 hours recovery
# Protocol: To establish if other cargoes can be loaded with this method, 0.4 million HEK293T cells were mixed with 50 pmoles of fluorescein-labeled 21nt DNA oligonucleotide, 50 pmoles of fluorescein-labeled 21nt double-stranded siRNA, or 5 μg of fluorescein-dextran (MW 3000-5000) in 500 μl of OptiMEM. The mixture was aspirated and dispensed through the filter with the 1 ml pipette in triplicates. The mixture was then transferred into 2 ml of regular DMEM medium and the cells allowed to recover for 12 hours at 37° C. After which, the cells were washed 3 times with DMEM and collected for flow cytometry.
substance,measurement,value
Dextran,percentage of cells having a higher than background fluorescence,clearly higher
